Experimental data published in ChEMBL document CHEMBL3991601, “The target landscape of clinical kinase drugs” (Science, 2017).
Calls of active or inactive are those of the source. For most assays here, no stated cut-off is given here; in the data, actives have a measured Kd and inactives only a lower limit.

Key:
[1] = molecular target: T1, Glycine--tRNA ligase (Homo sapiens, UniProt P41250)
T1 sequence (P41250 whole entry): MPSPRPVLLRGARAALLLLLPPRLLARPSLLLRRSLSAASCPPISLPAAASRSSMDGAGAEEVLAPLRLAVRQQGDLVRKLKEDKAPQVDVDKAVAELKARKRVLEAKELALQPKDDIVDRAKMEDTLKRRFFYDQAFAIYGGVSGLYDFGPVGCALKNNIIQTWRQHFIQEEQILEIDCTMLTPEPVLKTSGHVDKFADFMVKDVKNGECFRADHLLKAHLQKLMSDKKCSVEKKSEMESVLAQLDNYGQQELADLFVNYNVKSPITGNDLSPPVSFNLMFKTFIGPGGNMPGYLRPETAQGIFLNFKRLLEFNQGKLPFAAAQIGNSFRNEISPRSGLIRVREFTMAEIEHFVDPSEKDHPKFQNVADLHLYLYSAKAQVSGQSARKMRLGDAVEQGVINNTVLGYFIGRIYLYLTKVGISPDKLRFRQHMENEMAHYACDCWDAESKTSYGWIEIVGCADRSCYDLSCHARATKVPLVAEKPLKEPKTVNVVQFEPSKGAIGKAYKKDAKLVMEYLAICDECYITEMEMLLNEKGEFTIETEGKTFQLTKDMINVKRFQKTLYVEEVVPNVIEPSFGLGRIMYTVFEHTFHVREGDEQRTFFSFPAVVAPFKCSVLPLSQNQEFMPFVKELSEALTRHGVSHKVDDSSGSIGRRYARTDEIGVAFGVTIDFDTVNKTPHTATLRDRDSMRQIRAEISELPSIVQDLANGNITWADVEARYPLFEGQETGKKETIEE

[2] = molecular target: Protein kinase C beta type (Homo sapiens, UniProt P05771)
[3] = molecular target: Serine/threonine-protein kinase SIK3 (Homo sapiens, UniProt Q9Y2K2)
[4] = molecular target: Tyrosine-protein kinase Fer (Homo sapiens, UniProt P16591)
[5] = molecular target: Ephrin type-A receptor 2 (Homo sapiens, UniProt P29317)
[6] = molecular target: T2, Serine/threonine-protein kinase TBK1 (Homo sapiens, UniProt Q9UHD2)
T2 sequence (Q9UHD2 whole entry): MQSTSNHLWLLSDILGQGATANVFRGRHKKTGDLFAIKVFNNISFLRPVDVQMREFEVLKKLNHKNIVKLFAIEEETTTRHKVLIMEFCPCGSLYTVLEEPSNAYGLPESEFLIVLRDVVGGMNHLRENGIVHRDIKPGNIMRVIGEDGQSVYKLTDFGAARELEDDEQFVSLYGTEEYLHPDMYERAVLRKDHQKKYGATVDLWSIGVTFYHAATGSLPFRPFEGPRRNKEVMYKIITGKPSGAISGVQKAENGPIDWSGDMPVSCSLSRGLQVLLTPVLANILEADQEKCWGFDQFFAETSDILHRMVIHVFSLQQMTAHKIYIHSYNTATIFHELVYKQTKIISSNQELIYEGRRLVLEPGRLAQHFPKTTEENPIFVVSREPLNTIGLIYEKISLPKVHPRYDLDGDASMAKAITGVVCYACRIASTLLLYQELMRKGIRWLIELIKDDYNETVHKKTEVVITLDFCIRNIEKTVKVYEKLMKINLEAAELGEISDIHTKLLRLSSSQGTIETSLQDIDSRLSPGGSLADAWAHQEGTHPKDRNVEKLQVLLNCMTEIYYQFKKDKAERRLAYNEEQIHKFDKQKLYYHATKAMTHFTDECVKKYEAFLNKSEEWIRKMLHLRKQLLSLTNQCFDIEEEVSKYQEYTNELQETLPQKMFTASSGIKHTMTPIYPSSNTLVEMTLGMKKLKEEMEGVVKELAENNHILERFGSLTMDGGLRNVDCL

[7] = molecular target: Serine/threonine-protein kinase MRCK gamma (Homo sapiens, UniProt Q6DT37)
[8] = molecular target: Tyrosine-protein kinase ABL1 (Homo sapiens, UniProt P00519)
[9] = molecular target: Atypical kinase COQ8A, mitochondrial (Homo sapiens, UniProt Q8NI60)
[10] = molecular target: T3, Adenine phosphoribosyltransferase (Homo sapiens, UniProt P07741)
T3 sequence (P07741 whole entry): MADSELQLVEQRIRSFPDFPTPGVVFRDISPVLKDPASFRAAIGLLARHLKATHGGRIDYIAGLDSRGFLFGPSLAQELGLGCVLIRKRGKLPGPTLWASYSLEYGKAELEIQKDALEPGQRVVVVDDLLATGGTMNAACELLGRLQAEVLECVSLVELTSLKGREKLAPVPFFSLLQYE

[11] = molecular target: Dual specificity tyrosine-phosphorylation-regulated kinase 1A (Homo sapiens, UniProt Q13627)
[12] = molecular target: Ephrin type-A receptor 5 (Homo sapiens, UniProt P54756)
[13] = molecular target: Dual specificity mitogen-activated protein kinase kinase 1 (Homo sapiens, UniProt Q02750)
[14] = molecular target: Bone morphogenetic protein receptor type-1A (Homo sapiens, UniProt P36894)
[15] = molecular target: Tyrosine-protein kinase BTK (Homo sapiens, UniProt Q06187)
[16] = molecular target: Dual specificity protein kinase CLK2 (Homo sapiens, UniProt P49760)
[17] = molecular target: T4, Rab-like protein 3 (Homo sapiens, UniProt Q5HYI8)
T4 sequence (Q5HYI8 whole entry): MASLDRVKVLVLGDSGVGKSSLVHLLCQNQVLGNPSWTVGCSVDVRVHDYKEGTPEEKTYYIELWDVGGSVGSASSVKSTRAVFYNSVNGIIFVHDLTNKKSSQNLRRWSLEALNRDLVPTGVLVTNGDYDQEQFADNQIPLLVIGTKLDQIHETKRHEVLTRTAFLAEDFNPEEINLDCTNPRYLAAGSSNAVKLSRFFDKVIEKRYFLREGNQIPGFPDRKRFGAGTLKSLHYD

Chain of Serine/threonine-protein kinase SIK3 (Q9Y2K2 whole entry): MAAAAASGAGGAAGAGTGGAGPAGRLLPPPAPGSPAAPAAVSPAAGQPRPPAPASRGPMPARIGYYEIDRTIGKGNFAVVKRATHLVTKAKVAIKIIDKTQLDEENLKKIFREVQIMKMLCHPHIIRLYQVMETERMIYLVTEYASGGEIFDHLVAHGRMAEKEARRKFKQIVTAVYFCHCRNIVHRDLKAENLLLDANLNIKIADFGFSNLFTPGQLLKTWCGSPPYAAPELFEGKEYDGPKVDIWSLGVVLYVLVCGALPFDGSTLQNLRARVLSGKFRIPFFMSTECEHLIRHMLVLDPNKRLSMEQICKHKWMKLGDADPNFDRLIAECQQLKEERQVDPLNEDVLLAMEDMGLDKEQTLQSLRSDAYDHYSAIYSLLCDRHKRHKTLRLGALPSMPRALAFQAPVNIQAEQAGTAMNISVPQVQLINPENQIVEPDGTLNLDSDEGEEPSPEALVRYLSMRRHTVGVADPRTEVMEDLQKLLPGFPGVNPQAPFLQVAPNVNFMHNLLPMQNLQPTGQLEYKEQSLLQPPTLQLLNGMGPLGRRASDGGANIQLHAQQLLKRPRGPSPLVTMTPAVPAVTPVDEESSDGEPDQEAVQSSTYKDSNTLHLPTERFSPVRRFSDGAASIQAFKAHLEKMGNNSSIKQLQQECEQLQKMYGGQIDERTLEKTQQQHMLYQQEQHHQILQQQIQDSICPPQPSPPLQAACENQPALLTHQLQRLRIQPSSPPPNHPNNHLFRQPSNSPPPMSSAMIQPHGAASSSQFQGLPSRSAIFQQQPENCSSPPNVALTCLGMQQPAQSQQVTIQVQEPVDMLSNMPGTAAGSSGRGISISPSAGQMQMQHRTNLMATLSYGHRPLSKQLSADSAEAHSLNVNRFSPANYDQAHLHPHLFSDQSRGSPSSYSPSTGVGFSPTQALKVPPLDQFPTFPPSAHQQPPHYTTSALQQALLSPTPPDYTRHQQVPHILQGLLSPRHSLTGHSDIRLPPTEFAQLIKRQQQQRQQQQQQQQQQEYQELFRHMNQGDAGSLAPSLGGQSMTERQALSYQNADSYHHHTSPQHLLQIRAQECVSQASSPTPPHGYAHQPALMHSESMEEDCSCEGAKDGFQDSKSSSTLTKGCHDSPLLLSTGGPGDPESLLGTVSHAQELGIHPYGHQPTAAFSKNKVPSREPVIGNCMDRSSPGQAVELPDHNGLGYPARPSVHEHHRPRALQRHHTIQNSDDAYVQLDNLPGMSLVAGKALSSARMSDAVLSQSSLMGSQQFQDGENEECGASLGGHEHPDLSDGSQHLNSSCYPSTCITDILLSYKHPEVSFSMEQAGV
Chain of Tyrosine-protein kinase Fer (P16591 whole entry): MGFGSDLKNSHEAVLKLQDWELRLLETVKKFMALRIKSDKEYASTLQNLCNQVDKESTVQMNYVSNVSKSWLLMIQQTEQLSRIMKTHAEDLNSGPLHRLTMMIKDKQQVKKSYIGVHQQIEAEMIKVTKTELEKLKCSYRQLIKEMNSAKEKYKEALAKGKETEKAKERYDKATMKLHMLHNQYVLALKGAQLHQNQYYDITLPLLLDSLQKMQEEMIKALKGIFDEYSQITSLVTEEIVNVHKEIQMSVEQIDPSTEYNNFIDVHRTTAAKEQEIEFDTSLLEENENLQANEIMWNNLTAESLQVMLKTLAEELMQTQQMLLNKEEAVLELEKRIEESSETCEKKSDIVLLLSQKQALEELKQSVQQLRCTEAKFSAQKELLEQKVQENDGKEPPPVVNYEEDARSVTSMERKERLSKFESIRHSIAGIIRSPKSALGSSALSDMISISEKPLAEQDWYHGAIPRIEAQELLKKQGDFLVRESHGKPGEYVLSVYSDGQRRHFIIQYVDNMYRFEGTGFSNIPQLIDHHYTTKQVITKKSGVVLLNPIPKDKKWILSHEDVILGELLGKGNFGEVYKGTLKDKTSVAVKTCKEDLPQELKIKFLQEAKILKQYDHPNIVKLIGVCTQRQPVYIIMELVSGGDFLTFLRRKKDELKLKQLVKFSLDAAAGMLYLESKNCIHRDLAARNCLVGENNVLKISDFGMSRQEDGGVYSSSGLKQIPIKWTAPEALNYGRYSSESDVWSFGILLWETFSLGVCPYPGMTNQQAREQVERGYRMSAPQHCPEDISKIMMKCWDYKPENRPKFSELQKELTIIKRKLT
Chain of Tyrosine-protein kinase ABL1 (P00519 whole entry): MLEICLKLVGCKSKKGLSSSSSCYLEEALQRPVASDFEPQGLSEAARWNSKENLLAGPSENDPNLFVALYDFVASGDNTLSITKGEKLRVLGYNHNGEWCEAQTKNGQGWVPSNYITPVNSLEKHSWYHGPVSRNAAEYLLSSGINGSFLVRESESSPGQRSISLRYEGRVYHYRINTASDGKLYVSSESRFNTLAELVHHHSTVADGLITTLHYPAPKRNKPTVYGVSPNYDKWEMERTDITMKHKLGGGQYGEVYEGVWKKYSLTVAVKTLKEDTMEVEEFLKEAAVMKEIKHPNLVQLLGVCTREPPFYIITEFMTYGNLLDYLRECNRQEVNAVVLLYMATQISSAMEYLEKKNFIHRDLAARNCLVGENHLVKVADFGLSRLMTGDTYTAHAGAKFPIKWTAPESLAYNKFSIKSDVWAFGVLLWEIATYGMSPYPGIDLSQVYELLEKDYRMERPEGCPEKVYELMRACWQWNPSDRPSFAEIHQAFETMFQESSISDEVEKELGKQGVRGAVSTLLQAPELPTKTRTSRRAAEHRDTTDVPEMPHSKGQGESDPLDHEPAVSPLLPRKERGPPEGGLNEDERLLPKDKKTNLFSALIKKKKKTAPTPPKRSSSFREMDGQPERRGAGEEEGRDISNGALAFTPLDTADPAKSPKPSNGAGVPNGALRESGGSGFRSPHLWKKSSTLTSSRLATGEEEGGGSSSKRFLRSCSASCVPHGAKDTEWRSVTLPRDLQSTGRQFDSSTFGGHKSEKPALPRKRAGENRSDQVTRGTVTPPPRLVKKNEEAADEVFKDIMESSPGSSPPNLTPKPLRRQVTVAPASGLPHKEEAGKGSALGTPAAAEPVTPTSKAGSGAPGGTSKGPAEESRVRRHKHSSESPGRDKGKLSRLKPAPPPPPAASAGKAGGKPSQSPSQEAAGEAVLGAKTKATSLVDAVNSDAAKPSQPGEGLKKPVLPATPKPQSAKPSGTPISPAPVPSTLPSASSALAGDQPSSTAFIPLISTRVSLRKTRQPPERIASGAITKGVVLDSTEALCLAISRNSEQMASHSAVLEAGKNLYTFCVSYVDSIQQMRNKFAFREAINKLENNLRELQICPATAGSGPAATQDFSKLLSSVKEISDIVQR
Chain of Serine/threonine-protein kinase MRCK gamma (Q6DT37 whole entry): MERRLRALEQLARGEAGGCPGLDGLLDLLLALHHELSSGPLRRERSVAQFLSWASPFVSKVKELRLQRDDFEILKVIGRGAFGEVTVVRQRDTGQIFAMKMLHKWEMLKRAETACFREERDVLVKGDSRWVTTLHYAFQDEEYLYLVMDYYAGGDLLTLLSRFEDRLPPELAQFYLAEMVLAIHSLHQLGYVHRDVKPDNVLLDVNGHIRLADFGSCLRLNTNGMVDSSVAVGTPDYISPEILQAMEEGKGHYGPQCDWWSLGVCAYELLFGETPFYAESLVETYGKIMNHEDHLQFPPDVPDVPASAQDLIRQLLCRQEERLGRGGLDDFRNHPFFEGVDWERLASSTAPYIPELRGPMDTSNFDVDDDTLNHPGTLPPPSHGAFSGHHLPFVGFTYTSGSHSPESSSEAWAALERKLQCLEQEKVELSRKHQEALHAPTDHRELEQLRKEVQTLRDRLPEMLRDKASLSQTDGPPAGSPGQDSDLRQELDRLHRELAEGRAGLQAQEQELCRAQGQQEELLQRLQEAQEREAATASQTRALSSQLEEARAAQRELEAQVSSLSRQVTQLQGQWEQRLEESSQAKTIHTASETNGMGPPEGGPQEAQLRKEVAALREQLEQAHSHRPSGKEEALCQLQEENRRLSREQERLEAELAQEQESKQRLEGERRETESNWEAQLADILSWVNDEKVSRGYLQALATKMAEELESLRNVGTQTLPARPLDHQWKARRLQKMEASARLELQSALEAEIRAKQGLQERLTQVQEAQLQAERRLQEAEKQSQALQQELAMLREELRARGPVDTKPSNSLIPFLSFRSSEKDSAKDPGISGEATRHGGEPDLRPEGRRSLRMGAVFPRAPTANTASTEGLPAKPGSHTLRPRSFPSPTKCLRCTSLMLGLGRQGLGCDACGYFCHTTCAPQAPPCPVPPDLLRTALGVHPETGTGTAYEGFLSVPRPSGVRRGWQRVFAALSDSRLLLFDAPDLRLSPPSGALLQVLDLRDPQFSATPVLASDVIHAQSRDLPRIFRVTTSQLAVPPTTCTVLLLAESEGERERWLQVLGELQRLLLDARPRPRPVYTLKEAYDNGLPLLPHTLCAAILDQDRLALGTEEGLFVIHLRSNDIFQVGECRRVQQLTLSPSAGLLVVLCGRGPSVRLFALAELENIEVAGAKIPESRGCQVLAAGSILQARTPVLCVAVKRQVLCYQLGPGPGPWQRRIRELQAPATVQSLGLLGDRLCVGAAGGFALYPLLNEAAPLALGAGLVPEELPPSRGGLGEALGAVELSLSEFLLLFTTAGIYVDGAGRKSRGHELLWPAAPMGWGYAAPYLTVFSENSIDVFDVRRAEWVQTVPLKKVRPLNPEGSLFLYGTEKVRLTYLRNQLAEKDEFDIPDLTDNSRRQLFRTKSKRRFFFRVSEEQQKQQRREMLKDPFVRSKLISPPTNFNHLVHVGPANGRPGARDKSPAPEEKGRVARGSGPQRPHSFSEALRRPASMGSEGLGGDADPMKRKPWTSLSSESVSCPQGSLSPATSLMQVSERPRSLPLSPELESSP

| Kd [1] | Kd [2] | Kd [3] | Kd [4] | Kd [5] | Kd [6] | Kd [7] | Kd [8] | Kd [9] | Kd [10] | Kd [11] | Kd [12] | Kd [13] | Kd [14] | Kd [15] | Kd [16] | Kd [17] | SMILES |
| --- | --- | --- | --- | --- | --- | --- | --- | --- | --- | --- | --- | --- | --- | --- | --- | --- | --- |
| > 30 µM (inactive) | > 30 µM (inactive) | > 30 µM (inactive) | > 30 µM (inactive) | > 30 µM (inactive) | > 30 µM (inactive) | > 30 µM (inactive) | > 30 µM (inactive) | > 30 µM (inactive) | > 30 µM (inactive) | > 30 µM (inactive) | > 30 µM (inactive) | > 30 µM (inactive) | > 30 µM (inactive) | 0.004 µM (active) | > 30 µM (inactive) | > 30 µM (inactive) | C=CC(=O)N1CCC[C@H](n2c(=O)n(-c3ccc(Oc4ccccc4)cc3)c3c(N)ncnc32)C1 |
| > 30 µM (inactive) | > 30 µM (inactive) | > 30 µM (inactive) | > 30 µM (inactive) | > 30 µM (inactive) | > 30 µM (inactive) | > 30 µM (inactive) | > 30 µM (inactive) | > 30 µM (inactive) | > 30 µM (inactive) | > 30 µM (inactive) | > 30 µM (inactive) | 3.01 µM (active) | 1.28 µM (active) | > 30 µM (inactive) | > 30 µM (inactive) | > 30 µM (inactive) | Cc1nc2cc(-c3nn(C(C)C)c4ncnc(N)c34)ccc2o1 |
| > 30 µM (inactive) | > 30 µM (inactive) | > 30 µM (inactive) | > 30 µM (inactive) | > 30 µM (inactive) | > 30 µM (inactive) | > 30 µM (inactive) | 1.9 µM (active) | > 30 µM (inactive) | > 30 µM (inactive) | > 30 µM (inactive) | > 30 µM (inactive) | 3.31 µM (active) | > 30 µM (inactive) | > 30 µM (inactive) | 3.22 µM (active) | > 30 µM (inactive) | Cc1csc(-c2nnc(Nc3ccc(Oc4ncccc4-c4ccnc(N)n4)cc3)c3ccccc23)c1 [AMG-900] |
| > 30 µM (inactive) | > 30 µM (inactive) | > 30 µM (inactive) | > 30 µM (inactive) | > 30 µM (inactive) | > 30 µM (inactive) | > 30 µM (inactive) | > 30 µM (inactive) | > 30 µM (inactive) | > 30 µM (inactive) | > 30 µM (inactive) | > 30 µM (inactive) | 0.045 µM (active) | > 30 µM (inactive) | > 30 µM (inactive) | > 30 µM (inactive) | > 30 µM (inactive) | Cn1cnc2c(F)c(Nc3ccc(Br)cc3F)c(C(=O)NOCCO)cc21 [BINIMETINIB] |
| > 30 µM (inactive) | > 30 µM (inactive) | > 30 µM (inactive) | > 30 µM (inactive) | > 30 µM (inactive) | > 30 µM (inactive) | > 30 µM (inactive) | > 30 µM (inactive) | > 30 µM (inactive) | > 30 µM (inactive) | > 30 µM (inactive) | > 30 µM (inactive) | > 30 µM (inactive) | > 30 µM (inactive) | > 30 µM (inactive) | > 30 µM (inactive) | > 30 µM (inactive) | CCn1c(C(=O)N(C2CC2)C2CC2)cc2c3c(ncn3C)c(Nc3cc(C)n(C)n3)nc21 [BMS-911543] |
| > 30 µM (inactive) | > 30 µM (inactive) | > 30 µM (inactive) | 0.214 µM (active) | > 30 µM (inactive) | > 30 µM (inactive) | > 30 µM (inactive) | > 30 µM (inactive) | > 30 µM (inactive) | > 30 µM (inactive) | > 30 µM (inactive) | > 30 µM (inactive) | > 30 µM (inactive) | > 30 µM (inactive) | > 30 µM (inactive) | > 30 µM (inactive) | > 30 µM (inactive) | Cc1cc(Nc2ncc(Cl)c(Nc3ccccc3S(=O)(=O)C(C)C)n2)c(OC(C)C)cc1C1CCNCC1 [CERITINIB] |
| > 30 µM (inactive) | > 30 µM (inactive) | > 30 µM (inactive) | > 30 µM (inactive) | > 30 µM (inactive) | > 30 µM (inactive) | > 30 µM (inactive) | > 30 µM (inactive) | > 30 µM (inactive) | > 30 µM (inactive) | > 30 µM (inactive) | > 30 µM (inactive) | > 30 µM (inactive) | > 30 µM (inactive) | > 30 µM (inactive) | > 30 µM (inactive) | > 30 µM (inactive) | COc1c(OCCCN2CCOCC2)ccc2c1N=C(NC(=O)c1cnc(N)nc1)N1CCN=C21 [COPANLISIB] |
| > 30 µM (inactive) | > 30 µM (inactive) | > 30 µM (inactive) | > 30 µM (inactive) | > 30 µM (inactive) | > 30 µM (inactive) | > 30 µM (inactive) | > 30 µM (inactive) | > 30 µM (inactive) | > 30 µM (inactive) | > 30 µM (inactive) | > 30 µM (inactive) | > 30 µM (inactive) | > 30 µM (inactive) | > 30 µM (inactive) | > 30 µM (inactive) | > 30 µM (inactive) | COCC(=O)NC/C=C/c1ccc2ncnc(Nc3ccc(Oc4ccc(C)nc4)c(C)c3)c2c1 [CP-724714] |
| > 30 µM (inactive) | > 30 µM (inactive) | > 30 µM (inactive) | > 30 µM (inactive) | > 30 µM (inactive) | > 30 µM (inactive) | > 30 µM (inactive) | > 30 µM (inactive) | > 30 µM (inactive) | > 30 µM (inactive) | > 30 µM (inactive) | > 30 µM (inactive) | > 30 µM (inactive) | > 30 µM (inactive) | > 30 µM (inactive) | > 30 µM (inactive) | > 30 µM (inactive) | Cc1nc2cc(-n3ncc(C(=O)c4cc5ccccc5[nH]4)c3N)ccc2[nH]1 [FGFR INHIBITOR DEBIO 1347] |

| SMILES | Kd [1] | Kd [2] | Kd [3] | Kd [4] | Kd [5] | Kd [6] | Kd [7] | Kd [8] | Kd [9] | Kd [10] | Kd [11] | Kd [12] | Kd [13] | Kd [14] | Kd [15] | Kd [16] | Kd [17] |
| --- | --- | --- | --- | --- | --- | --- | --- | --- | --- | --- | --- | --- | --- | --- | --- | --- | --- |
| O=C(Nc1nc2cccc(-c3ccc(CN4CCS(=O)(=O)CC4)cc3)n2n1)C1CC1 [FILGOTINIB] | > 30 µM (inactive) | > 30 µM (inactive) | > 30 µM (inactive) | > 30 µM (inactive) | > 30 µM (inactive) | > 30 µM (inactive) | > 30 µM (inactive) | > 30 µM (inactive) | > 30 µM (inactive) | > 30 µM (inactive) | > 30 µM (inactive) | > 30 µM (inactive) | > 30 µM (inactive) | > 30 µM (inactive) | > 30 µM (inactive) | > 30 µM (inactive) | > 30 µM (inactive) |
